# Laboratory results: US12044651B2, “Sensor device and methods” (SCENTIAN BIO LIMITED, priority 2016, dated 2024)
# Read-outs that look alike come from different tables or passages of the source. Marks after values point to notes of the source that are not given here.
# How the values were obtained:
# [1] = tested on: AgOr48/Orco; settings: given as Log, cited from earlier work
# [2] = tested on: DiOR1/Orco; settings: cited from earlier work
# [3] = tested on: OscaOR1/Orco; settings: cited from earlier work
# [4] = tested on: EpOR3/Orco; settings: estimated visually from graph; cited from earlier work
# [5] = tested on: BmOr1/Orco; settings: cited from earlier work
# [6] = tested on: BmOR1/Orco; settings: cited from earlier work
# [7] = tested on: BmOR1/Ocro; settings: ref 13; cited from earlier work
# [8] = tested on: SexiOR16/Orco; settings: ref 26; cited from earlier work
# [9] = biological target: T1, OR71a (Drosophila melanogaster, UniProt Q9VUK5); assay: CNT-FET sensor covalently functionalized with Or71a nanodiscs (Example 3); assay type: binding
# T1 sequence (Q9VUK5 1-378): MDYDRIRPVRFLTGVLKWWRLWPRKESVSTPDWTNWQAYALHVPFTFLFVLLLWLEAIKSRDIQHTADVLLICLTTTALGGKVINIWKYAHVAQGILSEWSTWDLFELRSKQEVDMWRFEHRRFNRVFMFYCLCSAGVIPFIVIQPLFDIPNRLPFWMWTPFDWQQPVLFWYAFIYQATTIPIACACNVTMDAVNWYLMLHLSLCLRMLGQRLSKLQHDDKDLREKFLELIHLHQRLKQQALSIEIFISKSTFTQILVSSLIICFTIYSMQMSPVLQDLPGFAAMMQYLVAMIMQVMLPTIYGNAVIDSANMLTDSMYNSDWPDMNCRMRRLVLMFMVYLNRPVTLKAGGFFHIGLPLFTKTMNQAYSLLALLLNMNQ
# Protocol: The dispersion was sonicated until a clear solution was obtained. The temperature was kept at 25° C. throughout the sonication process. The thiolpyridine solution was prepared by dissolving 10 mg of 2-Mercaptopyridine (99%, Sigma Aldrich) in 1 ml of methanol. The solution was spun coated on a polydimethylsiloxane (PDMS) surface at 2000 rpm for one minute. Before the spin coating process, the PDMS surface was cleaned by a 50 W Oxygen plasma for 1 minute to improve the wettability. The cleaned substrates were placed upside down on the PDMS surface for three minutes and washed in ethanol to remove the excess thiolpyridine molecules. Then the substrates were transferred into the CNT suspension and immersed into the suspension for 10 minutes. The samples were removed from the suspension and dipped into Ethanol for another 10 minutes to remove the thiolpyridine molecules in the SWNT network. The alignment markers were deposited by defining the markers by photolithography and thermal evaporation of 5 nm Chromium and 50 nm of Gold. The metal Lift off was done by acetone immersion for 15 minutes followed by an Isopropyl alcohol (IPA) wash and N2 blow dry. The result is a uniform thin film CNT network covering the entire substrate surface. The purification procedure is a variation on the one detailed in […] et al. 2013^14. […] Purity was assessed on Coomassie stained SDS-PAGE gels and Western blotting. […]
# [10] = biological target: T1, OR71a; assay: EIS sensor, Or71a liposomes on gold electrode, optimized conditions (Example 5); assay type: binding; settings: EIS
# [11] = tested on: OBP proteins; settings: ref 41; cited from earlier work
# [12] = biological target: DOr85b/Orco (Drosophila melanogaster, UniProt Q9VHQ7); settings: cited from earlier work
# Sequence of DOr85b/Orco (Q9VHQ7 whole entry): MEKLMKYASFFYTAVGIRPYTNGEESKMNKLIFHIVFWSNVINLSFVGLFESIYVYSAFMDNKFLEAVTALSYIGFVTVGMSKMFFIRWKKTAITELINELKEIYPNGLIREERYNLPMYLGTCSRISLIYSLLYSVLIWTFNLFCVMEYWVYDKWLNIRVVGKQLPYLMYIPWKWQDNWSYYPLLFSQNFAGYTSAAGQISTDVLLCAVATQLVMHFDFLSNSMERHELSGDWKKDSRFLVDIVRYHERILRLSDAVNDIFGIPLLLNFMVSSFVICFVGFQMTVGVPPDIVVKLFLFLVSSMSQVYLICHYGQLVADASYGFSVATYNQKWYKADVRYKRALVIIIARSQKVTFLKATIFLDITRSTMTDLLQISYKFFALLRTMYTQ
# Sequence of DOr85b/Orco (Q9VNB5 whole entry partner): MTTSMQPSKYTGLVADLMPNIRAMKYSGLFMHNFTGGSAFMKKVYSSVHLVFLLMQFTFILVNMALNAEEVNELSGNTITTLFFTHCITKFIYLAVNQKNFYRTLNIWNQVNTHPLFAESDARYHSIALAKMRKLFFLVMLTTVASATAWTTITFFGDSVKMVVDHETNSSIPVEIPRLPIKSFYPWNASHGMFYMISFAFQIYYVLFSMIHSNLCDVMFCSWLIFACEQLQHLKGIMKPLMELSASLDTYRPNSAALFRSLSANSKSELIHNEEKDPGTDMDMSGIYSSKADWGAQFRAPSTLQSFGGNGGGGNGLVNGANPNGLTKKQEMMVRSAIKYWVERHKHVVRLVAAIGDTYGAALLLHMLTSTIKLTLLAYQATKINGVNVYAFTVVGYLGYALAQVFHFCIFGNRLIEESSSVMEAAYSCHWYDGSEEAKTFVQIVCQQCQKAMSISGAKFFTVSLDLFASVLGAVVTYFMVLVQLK
# [13] = tested on: AgOR8/Orco; settings: ref 33; cited from earlier work
# [14] = tested on: HVOR6/Orco; settings: ref 31; cited from earlier work
# [15] = tested on: MsiOR1/Orco; settings: cited from earlier work
# [16] = biological target: T2, AgOR1/Orco (Anopheles gambiae, UniProt Q8WTE7); settings: ref 33; cited from earlier work
# T2 construct: host or cells: Xenopus oocytes
# T2 sequence (Q8WTE7 whole entry): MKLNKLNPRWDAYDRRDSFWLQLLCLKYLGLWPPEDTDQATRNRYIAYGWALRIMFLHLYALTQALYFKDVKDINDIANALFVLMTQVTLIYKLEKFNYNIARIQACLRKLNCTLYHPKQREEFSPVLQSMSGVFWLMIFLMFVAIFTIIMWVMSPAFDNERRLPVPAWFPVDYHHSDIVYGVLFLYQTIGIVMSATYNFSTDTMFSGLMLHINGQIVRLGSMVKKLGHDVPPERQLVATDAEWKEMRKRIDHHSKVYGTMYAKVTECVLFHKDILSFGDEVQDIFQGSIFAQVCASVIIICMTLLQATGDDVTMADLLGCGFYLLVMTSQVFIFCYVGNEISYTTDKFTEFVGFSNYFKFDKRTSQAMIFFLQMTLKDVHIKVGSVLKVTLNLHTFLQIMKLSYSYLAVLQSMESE
# T2 sequence (Q7QCC7 whole entry partner): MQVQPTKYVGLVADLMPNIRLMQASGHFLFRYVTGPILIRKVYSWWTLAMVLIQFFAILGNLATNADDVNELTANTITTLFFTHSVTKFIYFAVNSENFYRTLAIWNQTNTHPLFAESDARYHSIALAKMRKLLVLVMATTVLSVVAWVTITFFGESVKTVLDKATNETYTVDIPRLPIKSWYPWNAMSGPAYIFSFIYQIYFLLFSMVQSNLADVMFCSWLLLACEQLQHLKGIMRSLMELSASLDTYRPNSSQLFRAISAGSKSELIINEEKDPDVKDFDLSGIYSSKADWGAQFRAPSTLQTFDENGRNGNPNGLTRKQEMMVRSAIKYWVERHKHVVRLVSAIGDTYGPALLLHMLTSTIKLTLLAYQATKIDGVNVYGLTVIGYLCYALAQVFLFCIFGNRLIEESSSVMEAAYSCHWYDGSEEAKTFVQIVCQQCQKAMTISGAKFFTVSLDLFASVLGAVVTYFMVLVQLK
# [17] = biological target: T3, AgOR2/Orco (Anopheles gambiae, UniProt Q8WTE6); settings: ref 33; cited from earlier work
# T3 construct: host or cells: Xenopus oocytes
# T3 sequence (Q8WTE6 whole entry): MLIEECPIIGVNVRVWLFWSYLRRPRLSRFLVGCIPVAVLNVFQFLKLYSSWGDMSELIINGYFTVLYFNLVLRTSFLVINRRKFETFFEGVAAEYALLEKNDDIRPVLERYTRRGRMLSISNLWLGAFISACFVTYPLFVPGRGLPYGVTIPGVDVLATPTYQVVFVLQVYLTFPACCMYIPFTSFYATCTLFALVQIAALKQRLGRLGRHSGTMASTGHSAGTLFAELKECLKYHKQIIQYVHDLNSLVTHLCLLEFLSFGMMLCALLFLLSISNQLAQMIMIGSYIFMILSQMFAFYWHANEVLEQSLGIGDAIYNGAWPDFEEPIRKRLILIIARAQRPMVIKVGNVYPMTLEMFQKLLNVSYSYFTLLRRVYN
# T3 sequence (Q7QCC7 whole entry partner): as the sequence (Q7QCC7 whole entry partner) above
# [18] = tested on: AgOr10/Orco; settings: ref 33; cited from earlier work
# [19] = tested on: SexiOR13/Orco; settings: ref 26; cited from earlier work
# [20] = tested on: EpOR3/Orco; settings: ref 19; cited from earlier work
# [21] = tested on: ECB (Z) OR3/Orco; settings: ref 2; cited from earlier work
# [22] = tested on: HVOR13/Orco; settings: ref 31; cited from earlier work
# [23] = tested on: PxOR1/Orco; settings: cited from earlier work
# [24] = tested on: AgOr65/Orco; settings: given as Log, cited from earlier work
# [25] = tested on: AgOr65/Orco; settings: ref 33; cited from earlier work
# [26] = tested on: BdorOBP2; settings: ref 39; cited from earlier work
# [27] = tested on: BmOr19/Orco; settings: cited from earlier work
# [28] = biological target: DmOr22a/Orco (Drosophila melanogaster, UniProt P81909); settings: cited from earlier work
# Sequence of DmOr22a/Orco (P81909 whole entry): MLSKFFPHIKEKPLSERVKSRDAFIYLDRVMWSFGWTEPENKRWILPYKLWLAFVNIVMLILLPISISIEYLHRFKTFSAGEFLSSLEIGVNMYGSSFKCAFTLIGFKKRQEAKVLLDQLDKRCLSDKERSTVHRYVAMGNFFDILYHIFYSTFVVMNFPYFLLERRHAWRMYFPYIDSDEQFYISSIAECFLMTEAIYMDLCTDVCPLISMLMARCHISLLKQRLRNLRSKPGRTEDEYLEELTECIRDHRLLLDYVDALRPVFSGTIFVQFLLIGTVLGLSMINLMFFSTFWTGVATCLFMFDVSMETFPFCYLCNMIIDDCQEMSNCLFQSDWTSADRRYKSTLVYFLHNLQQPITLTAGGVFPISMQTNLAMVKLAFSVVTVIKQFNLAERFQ
# [29] = tested on: OnOr1/Orco; settings: ref 32; cited from earlier work
# [30] = tested on: BmOR3/Orco; settings: ref 13; cited from earlier work
# [31] = tested on: BmOR3/Orco; settings: cited from earlier work
# [32] = tested on: BmOr45/Orco; settings: cited from earlier work
# [33] = tested on: BmOr47/Orco; settings: cited from earlier work
# [34] = tested on: EpOR1/Orco; settings: cited from earlier work
# [35] = tested on: ApolOR1/Orco; settings: +ApolPBP2; estimated visually from graph; cited from earlier work
compound,measurement,setting,value
CCCCCCCCC1CCC(=O)O1 (stereo not shown) [g-dodecalactone],Ec50 (Log),[1],Log = −7.01
same,Sensitivity limit (Log),"[1]; ref 25, estimated visually from graph",Log = −8*
CCCC/C=C/CCCCCCCCCC=O [EII-16:Ald],Sensitivity limit,[2]; estimated visually from graph,10^−7 M*
same,EC50,[2]; ref 28,1000 nM
CC/C=C/CCCCCCCCCCO [E11-14:OH],Sensitivity limit,[3]; estimated visually from graph,10^−7 M*
same,EC50,[3]; ref 27,1000 nM
CC(C)=CCCC(C)=CC=O [Citral],Sensitivity limit,[4],10^−15 M*
CCC/C=C\C=C\CCCCCCCCCO [Bombykol],EC50,[5]; ref 29,34 µM
same,EC50,[5]; ref 30,5.9 µM
same,Sensitivity limit,[6]; estimated visually from graph,10^−8 − 10^−6 M*
same,EC50,[6]; ref 12,250 nM
same,EC50,[7],4.39 µM
same,Sensitivity limit,[7],1000 nM
CCCC/C=C\CCCCCCCCO [Z9-14:OH],EC50,[8],969 nM
CCc1ccc(OC)c(O)c1 [4-ethyl guaiacol],limit of detection,[9]; nanodiscs 1:100 dilution,below 1 fM
same,concentration at which clear electronic response starts,[9]; real time current measurement mode,1 fM
same,LOD,[10],0.1 fM
CCCCCC(C)=O [2-heptanone],concentration that could be detected,[11],0.018 M
same,Sensitivity limit,[12]; estimated visually from graph,10^−8 − 10^−6 M*
same,EC50,[12]; ref 12,45.6 µM
C=CC(O)CCCCC (stereo not shown) [1-octen-3-ol],EC50,[13],186 nM
CCCC/C=C\CCCCCCCC=O [Z9-14:ald],EC50,[14],979 nM
CCCC/C=C\CCCCCCCCCCOC(C)=O [Z11-16:Ac],Sensitivity limit,[15]; estimated visually from graph,10^−7 M*
same,EC50,[15]; ref 28,1000 nM
Cc1ccc(O)cc1 [4-methylphenol],EC50,[16],412 nM
c1ccc2[nH]ccc2c1 [indole],EC50,[17],16.7 nM
same,EC50,[18],137 nM
"C/C=C/C/C=C\CCCCCCCCOC(C)=O [Z9, E12-14:OAc]",EC50,[19],3.16 µM
CC(=O)OC/C=C(\C)CCC=C(C)C [geranyl acetate],EC50,[20],1000 nM
CC/C=C/CCCCCCCCCCOC(C)=O [E11 pheromone],EC50,[21],12.5 nM
same,Sensitivity limit,[21],10^−9 M^
CCCC/C=C\CCCCCCCCCC=O [Z11-16:Ald],EC50,[22],979 nM
same,Sensitivity limit,[23]; estimated visually from graph,10^−8 − 10^−6 M*
same,EC50,[23]; ref 12,2520 nM
C=CCc1ccc(O)c(OC)c1 [eugenol],Ec50 (Log),[24],Log = −6.54
same,Sensitivity limit (Log),"[24]; ref 23, estimated visually from graph",Log = −7*
same,EC50,[25],34.4 nM
C=CC(C)(O)CCC=C(C)C (stereo not shown) [linalool],detection limit,[26],~10^−6 M
same,Sensitivity limit,[27]; estimated visually from graph,10^−10 M*
same,EC50,[27]; ref 18,4.69 nM
CCCC(=O)OCC [ethyl butyrate],Sensitivity limit,[28]; estimated visually from graph,10^−12 M*
same,EC50,[28]; ref 3,0.0158 nM
C/C=C/CCCCCCCCCCCOC(C)=O [E12-14:OAc],EC50,[29],260 nM
CCC/C=C\C=C\CCCCCCCCC=O [Bombykal],EC50,[30],2030 nM
same,Sensitivity limit,[30],300 nM
same,Sensitivity limit,[31]; estimated visually from graph,10^−8 − 10^−6 M*
same,EC50,[31]; ref 12,380 nM
O=C(O)c1ccccc1 [benzoic acid],Sensitivity limit,[32]; estimated visually from graph,10^−11 M*
same,EC50,[32]; ref 18,0.144 nM
same,Sensitivity limit,[33]; estimated visually from graph,10^−14 M*
same,EC50,[33]; ref 18,0.0142 nM
CC(C)=CCC/C(C)=C/CO [geraniol],detection limit,[26],~10^−6 M
same,Sensitivity limit,[34]; estimated visually from graph,10^−14 M*
same,EC50,[34]; ref 17,1.8 pM
"CCCC/C=C\CCC/C=C/CCCCC=O [(E,Z) -6,11-hexadecadienal]",Sensitivity limit,[35],10^−15 M*
